Measured values as given in patent US12059230B2, “Extending fluorescent assays in vivo for biomedical sensing: wavelength modulation spectroscopy” (MASSACHUSETTS INSTITUTE OF TECHNOLOGY, priority 2019, dated 2024).

Tests used:
[1] = In vitro hydrogel dynamics: sensor response fitted to the diffusion equation; type: physicochemical; details: 10×10×2 mm^3 gel with 20 mg/l (AC)15-SWNTs, 100 μM riboflavin
Protocol: FIG. 33 depicts in vitro hydrogel dynamics. […] The black curve represents the measured data, while the red line is a fit to the diffusion equation, yielding a diffusion constant of 1.04×10^−6 cm^2/s.
Hydrogel preparation. The nanotube embedded hydrogels were prepared using polyethylene glycol diacrylate from Alfa Aesar using a PEG chain length of 8000 Da (PEG8000DA). The UV triggered initiator was 2-hydroxy-4′-(2-hydroxyethoxy)-2-methylpropiophenone from Sigma Aldrich and was dissolved in a stock solution of 7 mg/mL in water before polymerization. […] The hydrogel precursor solution is held under a flowing N2 atmosphere for 30 minutes to remove dissolved oxygen. After degassing, the solution is pipetted into glass molds and returned to the nitrogen atmosphere. The molds are then exposed to 365 nm UV light (UVP Blak-Ray XX-15BLB) for 45 minutes to polymerize. Afterwards, the hydrogels were removed from the molds and left to incubate in 1×PBS overnight to remove any unreacted monomer to free-floating SWNT. Then the PBS solution was exchanged to a fresh solution and the hydrogels were ready to use.
The interaction between an analyte and the hydrogel sensor is further described with analyte diffusion. The mathematical model solves the following nondimensionalized unsteady diffusion model and boundary conditions: […]

[2] = In vivo sensor response to riboflavin injection in SKH1-E mouse (intraperitoneal implant); details: 300 μM riboflavin injected through catheter
Description: FIGS. 5A-5H depict in vivo sensing. […] Scale bars are 5 mm. […] Sham stands for gels without a sensor, flipped configuration represents a mouse laying on its back with the signal passing through the full thickness of the animal body. […] The scale bar is 5 mm. […] The single laser excitation was at 730 nm. WIFF system was modulated at 2 Hz between 680, 730, and 780 nm. The emission collection was at >1100 nm.
FIGS. 32A-32B depict sensing experiments with mice. […] Five replicas on biologically independent animals. Sensors (10×10×2 mm^3 gel with 20 mg/l (AC)15-SWNTs)) were implanted into the intraperitoneal space of mice. […] The time t=0 corresponds to the time of injection.
The ultimate goal of fluorescent sensing is to detect analytes in vivo at the implantation point and wirelessly transmit the signal to the surface of the body. […] These types of measurements are critical for many biomedical problems focused on tissue permeability, such as targeted delivery of therapeutics, and changes in vascular permeability related to disorders, either as the origin or manifestation of various diseases. […]

- diffusion constant in the hydrogel [1]: 1.04×10^−6 cm^2/s
Compound: Cc1cc2nc3c(=O)[nH]c(=O)nc-3n(C[C@H](O)[C@H](O)[C@H](O)CO)c2cc1C [riboflavin]
- onset time of quenching after the injection [2]: 51 s
- sensor quenching ([2]; intraperitoneal sensor, WIFF): 17%
